{
  "source": "paper PMC9732823",
  "about": "“Discovery of Dual Aβ/Tau Inhibitors and Evaluation of Their Therapeutic Effect on a Drosophila Model of Alzheimer’s Disease” (ACS Chemical Neuroscience, 2022)",
  "key": {"[1]": {"target": "T1, Aβ42 (Homo sapiens, UniProt P05067)", "T1 construct": "expressed in transfected cells; host or cells: Escherichia coli BL21 (DE3), pET28a", "T1 sequence (P05067 672-713 limits assumed)": "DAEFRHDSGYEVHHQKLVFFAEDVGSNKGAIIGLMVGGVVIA", "assay": "Inhibition of Aβ42 aggregation in intact E. coli cells overexpressing Aβ42 (ThS fluorescence)", "format": "cell-based, Escherichia coli", "in_short": "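E. coli BL21(DE3) expressing Met-Aβ42 grown in M9 with 250 μM ThS, induced with IPTG at OD600 0.6 alongside 10 μM compound, then overnight at 37 °C. ThS emission at 485 nm (ex 440 nm) normalised to OD600. 100% = induced cells without drug, 0% = non-induced cells.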"}, "[2]": {"assay": "Solubility in the in vitro aggregation assay conditions", "conditions": "dedicated solubility assays", "experimental": "* The results are the mean of at least two independent measurements each performed in duplicate.\n1 Compounds were measured at 50 μM.\nNS = not soluble in the assay conditions"}, "[3]": {"test_system": "Arctic Aβ42 Drosophila flies", "assay": "Lifespan analysis in Arctic Aβ42 Drosophila flies", "conditions": "20 μM in fly food; days 5, 10, 20 post-eclosion", "experimental": "As longevity is a phenotype that can be rapidly measured in this in vivo AD model, we first assessed changes in Drosophila’s lifespan with and without treatment with 22 and 23 (20 μM). […] Doxycycline was tested at 50 μM, a concentration used in similar previous experiments.[59]\nThe transactivating protein GAL4 is placed under the control of a specific promoter, with its own spatial and temporal patterns, in this case, Elav, whereas the upstream activation sequence (UAS) localized upstream, the locus controlled by the UAS-Gal4; in our study, UAS expresses construct for the E22G variant of Aβ42 (Arctic Aβ42) (AlzArc2).[56],[64] Around 150 flies (half female/male) for each compound tested were collected and divided into groups of 25 flies. At the top of the media, 25 μL of doxycycline (50 μM), 22 (20 μM), or 23 (20 μM) were added fresh anytime the flies were flipped.\nBriefly, males and females 25 per vial were kept at 25 °C."}, "[4]": {"target": "T2, Tau protein (Homo sapiens, UniProt P10636)", "T2 construct": "expressed in transfected cells; host or cells: Escherichia coli BL21 (DE3) with pTARA and pRKT42", "T2 sequence (P10636 1-441 isoform P10636-8)": "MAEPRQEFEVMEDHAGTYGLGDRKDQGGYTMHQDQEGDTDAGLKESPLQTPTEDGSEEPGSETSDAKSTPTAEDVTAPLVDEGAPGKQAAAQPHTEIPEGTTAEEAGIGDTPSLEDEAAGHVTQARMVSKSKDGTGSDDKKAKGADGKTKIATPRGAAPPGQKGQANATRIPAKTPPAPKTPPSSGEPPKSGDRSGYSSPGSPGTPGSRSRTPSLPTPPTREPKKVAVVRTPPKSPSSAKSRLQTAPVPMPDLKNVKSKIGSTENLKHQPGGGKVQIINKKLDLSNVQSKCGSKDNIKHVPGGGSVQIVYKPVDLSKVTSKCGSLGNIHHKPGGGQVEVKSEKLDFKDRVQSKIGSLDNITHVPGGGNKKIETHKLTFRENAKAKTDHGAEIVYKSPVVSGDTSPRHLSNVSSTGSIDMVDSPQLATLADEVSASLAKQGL", "assay": "Inhibition of Tau aggregation in intact E. coli cells overexpressing Tau (ThS fluorescence)", "format": "cell-based, Escherichia coli", "in_short": "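E. coli BL21(DE3) expressing four-repeat Tau, arabinose-induced in M9 with 25 μM ThS, grown overnight at 37 °C with compound at 10 μM final. ThS emission at 485 nm (excitation 440 nm) normalized to ABS600; 100% = induced DMSO control, 0% = noninduced cells.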"}, "[5]": {"test_system": "cerebellar granule neurons (CGNs)", "assay": "Neurotoxicity on primary cultures of cerebellar granule neurons (nuclei counting after Hoechst staining)", "conditions": "differentiated CGNs, 24 h, percentage of healthy nuclei on total nuclei, mean ± SEM of three experiments"}, "[6]": {"conditions": "intact E. coli cells, compound 10 μM, mean ± SEM of four independent experiments, 10 µM"}},
  "data": [
    {"smiles": "CN(C)CCN1C(=O)S/C(=C\\c2ccc3c(c2)C(C)(C)c2cc(/C=C4\\SC(=O)N(CCN(C)C)C4=O)ccc2-3)C1=O", "note": "[Compound 23, (5Z,5′Z)-5,5′-((9,9-Dimethyl-9H-fluorene-2,7-diyl)bis(methanylylidene))bis(3-(2-(dimethylamino)ethyl)thiazolidine-2,4-dione)]", "values": [
      {"measurement": "% inhibition Aβ42 aggregation @ 10 μM", "setting": "[1]; [6]", "value": "44.8 ± 4.7", "unit": "%"},
      {"measurement": "inhibition at 10 µM", "setting": "[1]; read-out: % inhibition Aβ42 aggregation @ 10 μM, intact E. coli cells, compound 10 μM, mean ± SEM of four independent experiments", "value": "> 40", "unit": "%"},
      {"measurement": "solubility in Aβ42 ThT-based assay condition", "setting": "[2]", "value": "too limited to grant trustable results"},
      {"measurement": "lifespan of Aβ42 Drosophila flies", "setting": "[3]", "value": "increase in longevity"},
      {"measurement": "% inhibition Tau aggregation @ 10 μM", "setting": "[4]; [6]", "value": "41.9 ± 3.9", "unit": "%"},
      {"measurement": "inhibition at 10 µM", "setting": "[4]; read-out: % inhibition Tau aggregation @ 10 μM, intact E. coli cells, compound 10 μM, mean ± SEM of four independent experiments", "value": "> 40", "unit": "%"},
      {"measurement": "% survival neurotoxicity @ 10 μM", "setting": "[5]", "value": "87.9 ± 3.4", "unit": "%"}
    ]}
  ]
}
